Source: ChEMBL document CHEMBL3875190, “MARK inhibitors: Declaring a No-Go decision on a chemical series based on extensive DMPK experimentation” (Bioorg Med Chem Lett, 2017)

Legend:
[1] = Total plasma clearance in rat; type: ADME, cell-free
[2] = Partition coefficient, logD of compound at pH 7 by HPLC analysis; type: physicochemical; settings: octanol/water
[3] = Volume of distribution in rat; type: ADME; settings: in vivo
[4] = biological target: MAP/microtubule affinity-regulating kinase 3 (Homo sapiens, UniProt P27448); assay: Inhibition of MARK3 (unknown origin)
MAP/microtubule affinity-regulating kinase 3, sequence (P27448 whole entry): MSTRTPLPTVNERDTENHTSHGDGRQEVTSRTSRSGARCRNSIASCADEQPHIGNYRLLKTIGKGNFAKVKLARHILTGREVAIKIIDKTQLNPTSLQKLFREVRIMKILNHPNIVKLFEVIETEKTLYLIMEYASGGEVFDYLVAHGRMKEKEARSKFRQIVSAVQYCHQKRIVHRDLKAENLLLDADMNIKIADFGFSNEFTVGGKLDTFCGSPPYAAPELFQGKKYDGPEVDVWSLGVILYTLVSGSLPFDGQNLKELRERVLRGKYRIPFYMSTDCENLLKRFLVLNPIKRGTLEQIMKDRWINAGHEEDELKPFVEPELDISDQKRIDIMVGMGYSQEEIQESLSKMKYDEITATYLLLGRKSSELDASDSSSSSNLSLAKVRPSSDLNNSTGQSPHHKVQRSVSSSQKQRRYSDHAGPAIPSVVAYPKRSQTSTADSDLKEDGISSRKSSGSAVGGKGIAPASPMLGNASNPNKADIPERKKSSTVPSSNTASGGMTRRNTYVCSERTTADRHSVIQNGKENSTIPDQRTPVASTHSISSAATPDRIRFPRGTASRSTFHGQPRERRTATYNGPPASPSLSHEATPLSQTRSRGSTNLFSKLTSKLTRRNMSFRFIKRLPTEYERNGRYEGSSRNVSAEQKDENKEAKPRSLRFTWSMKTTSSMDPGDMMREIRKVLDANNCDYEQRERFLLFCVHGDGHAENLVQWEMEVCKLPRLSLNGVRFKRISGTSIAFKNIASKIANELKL

[5] = Half life in rat liver microsomes; type: ADME
[6] = Half life in human liver microsomes; type: ADME
[7] = Half life in dog liver microsomes; type: ADME, Canis lupus familiaris
[8] = Total plasma clearance in dog; type: ADME, cell-free, Canis lupus familiaris
[9] = Drug metabolism in rat hepatocytes assessed as oxidation; type: ADME, cell-based, Hepatocyte
[10] = Drug metabolism in rat hepatocytes assessed as glucuronidation; type: ADME, cell-based, Hepatocyte
[11] = Drug excretion in bile duct-cannulated rat urine after 8 hrs by chromatographic analysis; type: ADME; settings: read-out: Drug excretion
[12] = Drug excretion in bile duct-cannulated rat bile after 8 hrs by chromatographic analysis; type: ADME, tissue-based; settings: read-out: Drug excretion
[13] = Drug recovery in bile duct-cannulated rat urine after 8 hrs by chromatographic analysis; type: ADME; settings: read-out: Drug recovery
[14] = Drug recovery in bile duct-cannulated rat bile after 8 hrs by chromatographic analysis; type: ADME, tissue-based; settings: read-out: Drug recovery
[15] = Stability in rat liver cytosol; type: ADME
[16] = Stability in human liver cytosol; type: ADME
[17] = Drug metabolism in rat liver microsomes assessed as oxidative metabolite formation; type: ADME
[18] = Drug metabolism in rat liver microsomes assessed as lactam hydrolysis; type: ADME
[19] = Drug metabolism in human liver microsomes assessed as oxidative metabolite formation; type: ADME
[20] = Drug metabolism in human liver microsomes assessed as lactam hydrolysis; type: ADME

clearance [1] [mL/min/kg]	logD [2]	Vd [3] [L/kg]	IC50 [4] [nM]	SMILES	half-life [5] [min]	further results
–	2.56	5.2	–	CC[C@H](C)N1C(=O)C(C)(C)c2cnc(Nc3cccnc3)nc21	–	–
–	2.21	–	80	CC[C@H](C)N1C(=O)C(C)(C)c2cnc(Nc3ccc(-c4nnc(C)[nH]4)cc3)nc21	50	half-life [7]: 80 min; clearance [8]: 10 mL/min/kg
81	2.3	2.9	60	CC[C@H](C)N1C(=O)C2(CC2)c2cnc(Nc3cccnc3)nc21	25	Drug metabolism [9]: Metabolite_Detected
–	–	–	–	CC1(C)C(=O)N([C@H]2CCc3c(O)cccc32)c2nc(Nc3ccccc3)ncc21	–	Drug metabolism [9]: Metabolite_Detected; Drug metabolism [10]: Metabolite_Detected
–	–	–	–	[3H]c1nc(Nc2cccnc2)nc2c1C(C)(C)C(=O)N2[C@H](C)CC	–	dose excreted at 8 h [11]: > 95%; dose excreted at 8 h [12]: > 95%; dose excreted at 8 h [13]: 60 to 90%; dose excreted at 8 h [14]: 60 to 90%; Stability [15]: Stable; Stability [16]: Stable
65	2.54	35	–	CC[C@H](C)N1C(=O)C(C)(C)c2cnc(Nc3ccc(CN4CCN(C)CC4)cc3)nc21	–	–
84	3.09	–	120	CC[C@H](C)N1C(=O)C(C)(C)c2cnc(Nc3ccc(S(C)(=O)=O)cc3)nc21	26	half-life [7]: 80 min; clearance [8]: 3 mL/min/kg
188	2.79	96	–	CC[C@H](C)N1C(=O)C(C)(C)c2cnc(Nc3ccc(CNC4CCCOC4)cc3)nc21 (stereo partly specified)	–	–
154	2.81	6.8	–	C[C@@H](c1ccc(F)cc1)N1C(=O)C(C)(C)c2cnc(Nc3cccnc3)nc21	–	–
135	2.68	3	–	CC[C@H](C)N1C(=O)C(C)(C)c2cnc(Nc3ccc(CN4CCC(=O)N(C)CC4)cc3)nc21	–	–
269	3.98	14	–	CC[C@H](C)N1C(=O)C(C)(C)c2cnc(Nc3ccc(CN4CC(C)OC(C)C4)cc3)nc21 (stereo partly specified)	–	–
47	2.82	2.8	–	CC1(C)C(=O)N(C2CCCCC2)c2nc(Nc3cccnc3)ncc21	–	–
–	–	–	–	CC1(C)C(=O)N(C2CCCCC2)c2nc(Nc3cccc(CN4CCOCC4)c3)ncc21	–	Drug metabolism [17]: Metabolite_Detected; Drug metabolism [18]: Metabolite_Detected; Drug metabolism [19]: Metabolite_Detected; Drug metabolism [20]: Metabolite_Detected

SMILES	clearance [1] [mL/min/kg]	logD [2]	Vd [3] [L/kg]	IC50 [4] [nM]	half-life [5] [min]	further results
CC(=O)N1CCC(N2C(=O)C(C)(C)c3cnc(Nc4ccc(F)cc4)nc32)CC1	37	2.5	1.6	2800	> 60	half-life [6]: 51 min
CC(=O)N1CCC(N2C(=O)C(C)(C)c3cnc(Nc4cccnc4)nc32)CC1	11	1.18	1.4	2100	> 60	half-life [6]: > 60 min
CC(=O)N1CCC(N2C(=O)C(C)(C)c3cnc(Nc4ccccc4)nc32)CC1	37	1.6	1.1	–	38	half-life [6]: 30 min
